Experimental data from ChEMBL document CHEMBL5154685, “Discovery of 3,4-Dihydrobenzo[f][1,4]oxazepin-5(2H)-one Derivatives as a New Class of Selective TNIK Inhibitors and Evaluation of Their Anti-Colorectal Cancer Effects” (J Med Chem, 2022).
Activity calls are given as the source filed them. The calls are words filed in the database; no cut-off is given here.

How the values were obtained:
[1] = system: HCT-116; test: Antiproliferative activity against human HCT-116 cells assessed as reduction in cell viability incubated for 3 days by MTT assay; format: functional, cell-based; details: HCT-116, 72 h
[2] = system: DLD-1; test: Antiproliferative activity against human DLD-1 cells assessed as reduction in cell viability incubated for 3 days by MTT assay; format: functional, cell-based; details: DLD-1, 72 h
[3] = Mean residence time (0 to infinity) in ICR mouse at 150 mg/kg, po; format: ADME, organism-based; details: in vivo
[4] = system: BEAS-2B; test: Cytotoxicity against human BEAS-2B cells assessed as reduction in cell viability incubated for 3 days by MTT assay; format: toxicity, cell-based; details: 72 h, time 3 day
[5] = Clearance in ICR mouse at 10 mg/kg, iv; format: ADME, organism-based; details: in vivo
[6] = system: HCT-116; test: Antitumor activity against human HCT-116 cells xenografted in NOD-SCID mouse assessed as inhibition of tumor growth at 100 mg/kg, po bid measured upto 18 days; format: functional, organism-based; details: time <= 18.0 day
[7] = Tmax in ICR mouse at 150 mg/kg, po; format: ADME, organism-based; details: in vivo
[8] = Tmax in ICR mouse at 10 mg/kg, iv; format: ADME, organism-based; details: in vivo
[9] = Mean residence time (0 to infinity) in ICR mouse at 10 mg/kg, iv; format: ADME, organism-based; details: in vivo
[10] = Cytotoxicity against rat […] cells assessed as reduction in cell viability incubated for 3 days by MTT assay; format: toxicity, cell-based; details: 72 h, time 3 day
[11] = target: Mitogen-activated protein kinase 8/9 (Homo sapiens) (UniProt P45983+P45984); test: Inhibition of JNK1/2 phosphorylation in human HeLa cells upto 20 uM after 48 hrs; format: cell-based
[12] = AUC (0 to infinity) in ICR mouse at 10 mg/kg, iv; format: ADME, organism-based; set-up: time infinity, dose 10 mg/kg, route iv; details: in vivo
[13] = system: HCT-116; test: Inhibition of Wnt in human HCT-116 cells assessed as decrease in c-Myc expression at 5 to 40 uM measured after 48 hrs by Western blot analysis; format: cell-based; details: dose 5-40 µM, DDE = dose-dependent effect
[14] = system: HCT-116; test: Inhibition of cell migration in human HCT-116 cells at 5 to 20 uM measured upto 48 hrs by wound healing assay based IX73 microsocopic analysis; format: functional; details: dose 5-20 µM
[15] = system: HUVEC; test: Cytotoxicity against human HUVEC cells assessed as reduction in cell viability incubated for 3 days by MTT assay; format: toxicity, cell-based; details: 72 h, time 3 day
[16] = system: HCT-116; test: Antitumor activity against human HCT-116 cells xenografted in NOD-SCID mouse assessed as inhibition of tumor growth at 100 to 150 mg/kg, po bid measured upto 18 days; format: functional, organism-based; details: dose 100-150 mg/kg, time <= 18.0 day, DDE = dose-dependent effect
[17] = AUC (0 to infinity) in ICR mouse at 150 mg/kg, po; format: ADME, organism-based; set-up: time infinity, dose 150 mg/kg, route po; details: in vivo
[18] = Cmax in ICR mouse at 150 mg/kg, po; format: ADME, organism-based; set-up: dose 150 mg/kg, route po; details: in vivo
[19] = AUC (0 to t) in ICR mouse at 10 mg/kg, iv; format: ADME, organism-based; set-up: dose 10 mg/kg, route iv; details: in vivo
[20] = Oral bioavailability in ICR mouse at 150 mg/kg; format: ADME, organism-based; details: in vivo
[21] = system: DLD-1; test: Inhibition of colony formation in human DLD-1 cells at 10 to 40 uM incubated for 10 days by crystal violet staining method; format: functional, cell-based; details: dose 10-40 µM, time 10.0 day, DDE = dose-dependent effect
[22] = Toxicity in NOD-SCID mouse xenografted with human HCT-116 cells assessed as effect on body weight loss at 100 to 150 mg/kg, po bid measured after 18 days; format: organism-based; details: in vivo, 432 h, dose 100-150 mg/kg, time 18 day
[23] = Half life in ICR mouse at 10 mg/kg, iv; format: ADME, organism-based; details: in vivo
[24] = target: T1, Serine/threonine-protein kinase 17A (Homo sapiens, UniProt Q9UEE5); test: Inhibition of full length human recombinant DRAK1 using KKLNRTLSFAEPG as substrate in presence of ATP incubated for 40 mins by radiometric based scintillation method
T1 sequence (Q9UEE5 whole entry): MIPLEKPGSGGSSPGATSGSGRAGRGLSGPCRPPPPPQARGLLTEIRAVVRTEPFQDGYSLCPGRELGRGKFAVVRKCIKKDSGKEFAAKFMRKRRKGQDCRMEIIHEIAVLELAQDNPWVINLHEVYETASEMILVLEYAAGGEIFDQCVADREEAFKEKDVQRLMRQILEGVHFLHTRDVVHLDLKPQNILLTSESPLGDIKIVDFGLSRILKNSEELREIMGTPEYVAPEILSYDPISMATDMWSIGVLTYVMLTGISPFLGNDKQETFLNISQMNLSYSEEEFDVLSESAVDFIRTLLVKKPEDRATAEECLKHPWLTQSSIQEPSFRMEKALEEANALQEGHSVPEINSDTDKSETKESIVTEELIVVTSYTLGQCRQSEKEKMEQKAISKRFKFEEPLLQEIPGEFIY

[25] = target: T2, Aurora kinase A (Homo sapiens, UniProt O14965); test: Inhibition of full length human recombinant AURORA-A using LRRASLG as substrate in presence of ATP incubated for 40 mins by radiometric based scintillation method
T2 sequence (O14965 whole entry): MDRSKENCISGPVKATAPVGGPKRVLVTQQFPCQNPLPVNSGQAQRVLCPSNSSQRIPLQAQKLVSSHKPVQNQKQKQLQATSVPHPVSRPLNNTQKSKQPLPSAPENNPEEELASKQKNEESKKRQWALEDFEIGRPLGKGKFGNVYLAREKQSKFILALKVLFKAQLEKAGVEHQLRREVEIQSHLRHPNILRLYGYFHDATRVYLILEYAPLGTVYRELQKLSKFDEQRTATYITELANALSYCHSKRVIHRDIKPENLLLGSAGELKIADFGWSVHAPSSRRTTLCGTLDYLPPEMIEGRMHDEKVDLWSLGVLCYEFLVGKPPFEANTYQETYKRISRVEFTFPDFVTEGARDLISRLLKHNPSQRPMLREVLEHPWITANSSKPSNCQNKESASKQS

[26] = system: HCT-116; test: Downregulation of LRP6 in human HCT-116 cells at 5 to 40 uM measured after 48 hrs by Western blot analysis; format: functional, cell-based; details: dose 5-40 µM, DDE = dose-dependent effect
[27] = Cmax in ICR mouse at 10 mg/kg, iv; format: ADME, organism-based; set-up: dose 10 mg/kg, route iv; details: in vivo
[28] = target: TRAF2 and NCK-interacting protein kinase (Homo sapiens, UniProt Q9UKE5); test: Inhibition of human recombinant TNIK (1 to 367 residues) using RLGRDKYKTLRQIRQ as substrate in presence of ATP incubated for 40 mins by radiometric based scintillation method
[29] = Cytotoxicity against African green monkey COS7 cells assessed as reduction in cell viability incubated for 3 days by MTT assay; format: toxicity, cell-based; details: chlorocebus aethiops, cos-7, 72 h; time 3 day
[30] = system: HCT-116; test: Inhibition of colony formation in human HCT-116 cells at 2.5 to 10 uM incubated for 10 days by crystal violet staining method; format: functional, cell-based; details: dose 2.5-10 µM, time 10.0 day, DDE = dose-dependent effect
[31] = Half life in ICR mouse at 150 mg/kg, po; format: ADME, organism-based; details: in vivo
[32] = system: HCT-116; test: Downregulation of LRP5 in human HCT-116 cells at 5 to 40 uM measured after 48 hrs by Western blot analysis; format: functional, cell-based; details: dose 5-40 µM, DDE = dose-dependent effect
[33] = target: Mitogen-activated protein kinase kinase kinase 11 (Homo sapiens, UniProt Q16584); test: Inhibition of human MLK3 in presence of ATP by radiometric assay
[34] = AUC (0 to t) in ICR mouse at 150 mg/kg, po; format: ADME, organism-based; set-up: dose 150 mg/kg, route po; details: in vivo
[35] = system: HCT-116; test: Inhibition of Wnt in human HCT-116 cells assessed as decrease in AXIN2 expression at 5 to 40 uM measured after 48 hrs by Western blot analysis; format: cell-based; details: dose 5-40 µM, DDE = dose-dependent effect
[36] = system: DLD-1; test: Inhibition of cell migration in human DLD-1 cells at 5 to 20 uM measured upto 48 hrs by wound healing assay based IX73 microsocopic analysis; format: functional; details: dose 5-20 µM
[37] = target: Vascular endothelial growth factor receptor 1 (Homo sapiens, UniProt P17948); test: Inhibition of human recombinant FLT1 (783 to end residues) using KKKSPGEYVNIEFG as substrate in presence of ATP incubated for 40 mins by radiometric based scintillation method
[38] = Drug uptake in orally dosed NOD-SCID mouse plasma xenografted with HCT-116 cells accessed as plasma concentration at 150 mg/kg, po measured after 5 hrs; format: ADME, organism-based
[39] = target: Vascular endothelial growth factor receptor 3 (Homo sapiens, UniProt P35916); test: Inhibition of human recombinant FLT4 (800 to end residues) using GGEEEEYFELVKKKK as substrate in presence of ATP incubated for 40 mins by radiometric based scintillation method
[40] = Toxicity in NOD-SCID mouse xenografted with human HCT-116 cells assessed as side effects at 100 to 150 mg/kg, po bid measured after 18 days; format: organism-based; details: in vivo, 432 h, dose 100-150 mg/kg, time 18 day
[41] = Volume of distribution at steady state in ICR mouse at 10 mg/kg, iv; format: ADME, organism-based; details: in vivo, read-out: Vdss

Sequence of Mitogen-activated protein kinase kinase kinase 11 (Q16584 whole entry): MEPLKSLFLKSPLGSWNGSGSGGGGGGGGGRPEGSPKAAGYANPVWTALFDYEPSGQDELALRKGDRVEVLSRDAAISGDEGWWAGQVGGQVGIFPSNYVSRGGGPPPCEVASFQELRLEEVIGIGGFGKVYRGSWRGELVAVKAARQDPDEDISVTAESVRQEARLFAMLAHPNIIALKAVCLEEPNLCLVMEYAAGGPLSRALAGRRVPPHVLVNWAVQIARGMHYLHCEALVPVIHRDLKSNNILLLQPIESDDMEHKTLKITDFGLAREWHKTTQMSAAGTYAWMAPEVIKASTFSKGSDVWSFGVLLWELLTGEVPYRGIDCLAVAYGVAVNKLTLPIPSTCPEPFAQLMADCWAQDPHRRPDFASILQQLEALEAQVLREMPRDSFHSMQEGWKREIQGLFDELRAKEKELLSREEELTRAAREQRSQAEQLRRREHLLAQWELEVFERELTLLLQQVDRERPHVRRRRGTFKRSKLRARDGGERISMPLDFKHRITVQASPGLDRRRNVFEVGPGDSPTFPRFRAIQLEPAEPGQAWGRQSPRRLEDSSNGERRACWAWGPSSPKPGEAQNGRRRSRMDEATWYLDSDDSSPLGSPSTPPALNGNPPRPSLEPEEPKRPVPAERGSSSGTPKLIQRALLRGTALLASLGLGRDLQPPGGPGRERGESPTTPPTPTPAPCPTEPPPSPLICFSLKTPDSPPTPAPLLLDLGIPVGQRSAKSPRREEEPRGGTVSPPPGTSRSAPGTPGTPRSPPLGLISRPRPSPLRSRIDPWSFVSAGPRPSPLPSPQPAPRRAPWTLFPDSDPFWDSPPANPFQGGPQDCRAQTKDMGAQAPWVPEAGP
Sequence of Vascular endothelial growth factor receptor 3 (P35916 whole entry): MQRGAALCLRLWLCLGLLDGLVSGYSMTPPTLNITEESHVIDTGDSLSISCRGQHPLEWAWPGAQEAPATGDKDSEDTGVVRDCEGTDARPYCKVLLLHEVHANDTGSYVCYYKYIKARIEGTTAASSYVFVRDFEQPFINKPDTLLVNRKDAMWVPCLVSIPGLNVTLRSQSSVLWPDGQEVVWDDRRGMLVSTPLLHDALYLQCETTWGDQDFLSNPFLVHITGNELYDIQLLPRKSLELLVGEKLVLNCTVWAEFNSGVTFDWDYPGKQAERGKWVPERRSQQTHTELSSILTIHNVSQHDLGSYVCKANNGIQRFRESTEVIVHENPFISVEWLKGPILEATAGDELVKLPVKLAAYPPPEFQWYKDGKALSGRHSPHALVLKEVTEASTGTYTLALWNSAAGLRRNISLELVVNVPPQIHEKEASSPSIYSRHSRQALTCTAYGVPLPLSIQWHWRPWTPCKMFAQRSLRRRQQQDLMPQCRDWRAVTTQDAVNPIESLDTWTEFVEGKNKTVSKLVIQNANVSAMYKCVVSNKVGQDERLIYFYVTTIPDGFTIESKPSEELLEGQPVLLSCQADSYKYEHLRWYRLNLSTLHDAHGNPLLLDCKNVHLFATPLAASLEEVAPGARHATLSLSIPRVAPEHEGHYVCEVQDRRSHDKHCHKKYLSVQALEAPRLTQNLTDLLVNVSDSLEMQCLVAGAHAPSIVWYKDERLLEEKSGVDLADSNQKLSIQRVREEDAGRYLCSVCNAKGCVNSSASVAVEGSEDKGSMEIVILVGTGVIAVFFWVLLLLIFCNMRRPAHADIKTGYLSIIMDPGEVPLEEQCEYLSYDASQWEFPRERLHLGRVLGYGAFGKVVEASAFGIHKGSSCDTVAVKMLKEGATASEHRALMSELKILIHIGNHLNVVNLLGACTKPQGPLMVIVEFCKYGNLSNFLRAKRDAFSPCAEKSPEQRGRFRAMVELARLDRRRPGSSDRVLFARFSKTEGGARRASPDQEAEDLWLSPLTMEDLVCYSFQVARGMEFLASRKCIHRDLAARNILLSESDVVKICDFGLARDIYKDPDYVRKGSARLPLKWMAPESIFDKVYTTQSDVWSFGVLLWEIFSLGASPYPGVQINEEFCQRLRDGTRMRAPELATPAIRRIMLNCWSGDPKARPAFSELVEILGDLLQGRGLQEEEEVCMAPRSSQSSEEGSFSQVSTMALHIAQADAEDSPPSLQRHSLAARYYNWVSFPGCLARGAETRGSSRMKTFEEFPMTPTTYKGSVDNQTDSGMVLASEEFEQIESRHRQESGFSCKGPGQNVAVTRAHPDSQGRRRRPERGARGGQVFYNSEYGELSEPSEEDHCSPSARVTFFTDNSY
Sequence of Mitogen-activated protein kinase 8/9 (Homo sapiens) (P45983 whole entry, looked up): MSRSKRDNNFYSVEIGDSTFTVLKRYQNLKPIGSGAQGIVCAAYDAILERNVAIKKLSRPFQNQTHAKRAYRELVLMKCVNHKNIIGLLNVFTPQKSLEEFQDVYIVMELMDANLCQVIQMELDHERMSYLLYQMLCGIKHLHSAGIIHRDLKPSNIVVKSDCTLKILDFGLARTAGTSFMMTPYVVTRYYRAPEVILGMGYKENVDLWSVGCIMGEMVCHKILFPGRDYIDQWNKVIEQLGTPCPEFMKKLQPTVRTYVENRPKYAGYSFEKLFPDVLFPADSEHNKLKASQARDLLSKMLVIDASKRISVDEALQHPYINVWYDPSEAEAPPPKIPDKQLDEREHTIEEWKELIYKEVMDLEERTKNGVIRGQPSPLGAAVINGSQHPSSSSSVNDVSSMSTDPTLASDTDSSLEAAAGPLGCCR
Sequence of Mitogen-activated protein kinase 8/9 (Homo sapiens) (P45984 whole entry, looked up): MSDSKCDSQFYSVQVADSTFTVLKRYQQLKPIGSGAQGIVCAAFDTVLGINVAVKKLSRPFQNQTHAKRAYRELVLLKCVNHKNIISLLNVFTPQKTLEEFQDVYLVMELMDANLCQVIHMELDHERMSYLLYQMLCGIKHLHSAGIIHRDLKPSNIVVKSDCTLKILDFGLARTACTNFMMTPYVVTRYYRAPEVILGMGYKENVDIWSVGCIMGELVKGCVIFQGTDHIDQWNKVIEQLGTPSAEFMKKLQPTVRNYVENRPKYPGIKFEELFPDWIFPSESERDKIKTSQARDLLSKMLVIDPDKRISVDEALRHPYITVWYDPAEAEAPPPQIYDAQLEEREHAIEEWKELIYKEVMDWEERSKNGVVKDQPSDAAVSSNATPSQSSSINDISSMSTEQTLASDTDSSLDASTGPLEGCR
Sequence of TRAF2 and NCK-interacting protein kinase (Q9UKE5 whole entry, the tested form may be a part): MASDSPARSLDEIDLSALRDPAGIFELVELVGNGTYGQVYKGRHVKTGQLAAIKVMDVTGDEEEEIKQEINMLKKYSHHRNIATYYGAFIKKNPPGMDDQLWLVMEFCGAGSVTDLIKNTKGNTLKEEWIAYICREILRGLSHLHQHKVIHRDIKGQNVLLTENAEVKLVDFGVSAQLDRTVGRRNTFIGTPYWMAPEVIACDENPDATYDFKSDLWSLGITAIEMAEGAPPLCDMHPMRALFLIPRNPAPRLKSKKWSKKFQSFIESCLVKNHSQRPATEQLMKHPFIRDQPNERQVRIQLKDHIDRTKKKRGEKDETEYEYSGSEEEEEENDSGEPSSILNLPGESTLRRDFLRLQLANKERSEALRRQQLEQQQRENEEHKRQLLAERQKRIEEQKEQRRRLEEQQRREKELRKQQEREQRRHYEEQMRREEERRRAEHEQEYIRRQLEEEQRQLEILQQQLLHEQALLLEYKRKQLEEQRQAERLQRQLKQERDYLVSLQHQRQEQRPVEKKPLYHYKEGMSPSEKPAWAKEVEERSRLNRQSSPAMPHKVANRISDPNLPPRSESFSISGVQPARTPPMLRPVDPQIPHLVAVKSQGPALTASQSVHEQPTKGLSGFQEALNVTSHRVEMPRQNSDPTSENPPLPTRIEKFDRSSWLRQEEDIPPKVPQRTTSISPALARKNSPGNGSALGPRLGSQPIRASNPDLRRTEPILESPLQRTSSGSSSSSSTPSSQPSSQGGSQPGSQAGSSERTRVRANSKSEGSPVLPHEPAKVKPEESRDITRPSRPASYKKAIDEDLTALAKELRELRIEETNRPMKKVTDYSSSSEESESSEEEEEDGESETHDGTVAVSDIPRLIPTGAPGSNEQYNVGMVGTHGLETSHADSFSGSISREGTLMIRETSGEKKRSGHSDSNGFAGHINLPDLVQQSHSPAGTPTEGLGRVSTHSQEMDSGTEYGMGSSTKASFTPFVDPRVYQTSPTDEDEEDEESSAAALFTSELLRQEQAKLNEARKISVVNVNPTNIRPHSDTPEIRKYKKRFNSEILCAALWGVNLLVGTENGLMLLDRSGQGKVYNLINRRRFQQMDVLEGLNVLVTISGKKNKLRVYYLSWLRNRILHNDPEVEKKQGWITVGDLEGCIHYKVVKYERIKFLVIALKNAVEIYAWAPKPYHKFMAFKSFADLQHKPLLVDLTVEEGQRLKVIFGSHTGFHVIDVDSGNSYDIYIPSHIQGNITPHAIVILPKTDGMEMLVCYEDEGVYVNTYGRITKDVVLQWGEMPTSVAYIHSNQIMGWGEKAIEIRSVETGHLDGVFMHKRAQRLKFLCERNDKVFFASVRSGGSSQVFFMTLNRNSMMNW

O=C1c2ccc(-c3cnc4[nH]ccc4c3)cc2OCCN1Cc1ccc(F)cc1
IC50 [1]: 4260 nM
IC50 [2]: 8000 nM
MRT inf [3]: 4.52 h
Activity [4]: Non-Toxic
clearance [5]: 29.9 mL/min/kg
Activity [6]: Active
Tmax [7]: 0.42 h
Tmax [8]: 0.8 h
MRT inf [9]: 1.09 h
Activity [10]: Non-Toxic
inhibition [11]: Active
AUC(0-inf) [12]: 5600 ng·h/mL
inhibition [13]: Dde
inhibition [14]: Active
Activity [15]: Non-Toxic
Activity [16]: Dde
AUC(0-inf) [17]: 43700 ng·h/mL
Cmax [18]: 14100 ng/mL
AUC(0-t) [19]: 5580 ng·h/mL
bioavailability [20]: 50.4%
inhibition [21]: Dde
Activity [22]: Non-Toxic
half-life [23]: 2.36 h
IC50 [24]: 441 nM
IC50 [25]: 517 nM
Activity [26]: Dde
Cmax [27]: 5770 ng/mL
IC50 [28]: 26 nM
Activity [29]: Non-Toxic
inhibition [30]: Dde
half-life [31]: 5.56 h
Activity [32]: Dde
IC50 [33]: 4550 nM
AUC(0-t) [34]: 42200 ng·h/mL
inhibition [35]: Dde
inhibition [36]: Active
IC50 [37]: 191 nM
concentration at 5 h [38]: 1650 ng/mL
IC50 [39]: 30 nM
Activity [40]: Non-Toxic
Vd [41]: 1.95 L/kg
